Data published in US20150335602A1, “IMPROVEMENT OF COGNITIVE FUNCTION IN PRETERM INFANTS THAT ARE SMALL FOR GESTATIONAL AGE” (N.V. NUTRICIA, priority 2013, published 2015).

Assays:
Type in all cases: in vivo, human
[1] = Intellectual development (WISC-III short form, FSIQ) in preterm children born small for gestational age; conditions: SGA glutamine group versus SGA control group, n=9 each
Procedure: A subgroup of infants born small for gestational age (SGA <10th percentile) was identified and analysed separately. Intellectual development was analysed in this subgroup of infants by a short form of the Wechsler Intelligence Scale for Children-III (WISC-III), including the subtests Vocabulary and Block Design. Both subtests correlate strongly (r 0.90) with full-scale intelligence quotient (FSIQ). Scores on this test were normalised with a mean of 100 (SD 15). A group of nine SGA infants that received placebo was compared with a group of nine SGA infants that received glutamine treatment.

[2] = Brain cortical volumes by MRI at school age after enteral glutamine supplementation in the first month of life; conditions: glutamine supplemented group versus control preterm group
Procedure: (§1) A randomized, placebo controlled clinical trial was performed. For a detailed protocol of the study, see van den Berg et al, 2004, Glutamine-enriched enteral nutrition in very low birth weight infants. Design of a double-blind randomised controlled trial [ISRCTN73254583], BMC Pediatrics 4:17.
(§2) In short: Infants with a gestational age <32 weeks and/or birth weight <1500 g were enrolled. […] Also comparisons were made with a control group (n=52) of term born infants.
(§3) The two powders were indistinguishable by appearance, colour and smell. […] Initially, the supplementation dose was based on birth weight. After 2 weeks the dose was adjusted to actual body weight. Two members of the nursing staff daily added supplementation to breast milk or to preterm formula (Nenatal®, Nutricia Nederland B. V., Zoetermeer, The Netherlands), according to the parents' choice. Per 100 ml, Nenatal® provides 78 kcal, 2.1 g protein (casein-whey protein weight ratio 40:60), 4.4 g fat and 7.5 g carbohydrate. […] Protocol guidelines for the introduction of parenteral and enteral nutrition are disclosed in van den Berg et al., 2004.
(§4) All statistical analyses are performed on an intention to treat basis. […]
Brain cortical volumes were determined by MRI and calculated using FSL software “FAST” and corrected for age at MRI scan, gender and body weight for gestational age.

[3] = Brain subcortical volumes by MRI at school age after enteral glutamine supplementation in the first month of life; conditions: glutamine supplemented group versus control preterm group
Procedure: as §1, §2, §3, §4
Brain subcortical volumes were determined by MRI and calculated using FSL software “FAST” and corrected for age at MRI scan, gender and body weight for gestational age.

In the case of `NC(=O)CC[C@H](N)C(=O)O` [Glutamine, L-glutamine], the “IQ compared to SGA control group (in words)” value [1] is reported as “significant improvement”, the “White matter volume compared to preterm control group (in words)” value [2] is reported as “significantly higher” and the “Brain stem volume compared to preterm control group (in words)” value [3] is reported as “significantly higher”. The “Hippocampus volume compared to preterm control group (in words)” value [3] was “significantly higher”.
